ChEMBL document CHEMBL1909046, “DrugMatrix in vitro pharmacology data”

What was measured:
[1] = target: T1, 5-hydroxytryptamine receptor 1A (Rattus norvegicus, UniProt P19327); format: cell membranes, CHO-K1, Membrane; settings: cho-k1; further: in other assays of this panel Not Active means under 50% inhibition at 10 µM
T1 sequence (P19327 whole entry): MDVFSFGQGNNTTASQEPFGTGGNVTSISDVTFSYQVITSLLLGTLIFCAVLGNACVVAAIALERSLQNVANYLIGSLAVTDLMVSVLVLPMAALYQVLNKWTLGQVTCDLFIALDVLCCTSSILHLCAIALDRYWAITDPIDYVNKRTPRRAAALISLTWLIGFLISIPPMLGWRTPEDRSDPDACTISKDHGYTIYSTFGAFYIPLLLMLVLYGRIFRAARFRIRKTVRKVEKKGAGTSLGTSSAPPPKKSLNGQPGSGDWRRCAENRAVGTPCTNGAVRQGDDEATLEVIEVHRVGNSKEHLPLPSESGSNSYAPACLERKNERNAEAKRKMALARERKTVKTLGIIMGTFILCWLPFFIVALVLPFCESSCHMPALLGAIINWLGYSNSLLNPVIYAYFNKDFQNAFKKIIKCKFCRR

[2] = target: Carbonic anhydrase 2 (Homo sapiens, UniProt P00918); assay: DRUGMATRIX: Carbonic Anhydrase II enzyme inhibition (substrate: 4-Nitrophenyl acetate (4-NPA)); format: tissue-based, Erythrocyte; settings: erythrocyte; Not Active = under 50% inhibition at 10 µM
[3] = target: T2, Polyunsaturated fatty acid lipoxygenase ALOX15 (Oryctolagus cuniculus, UniProt P12530); assay: biochemical; format: tissue-based, Reticulocytes; settings: reticulocytes;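 further: inhibition of 15-lipoxygenase enzyme activity measured with linoleic acid as the substrate; in other assays of this panel Not Active means under 50% inhibition at 10 µM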
T2 sequence (P12530 whole entry): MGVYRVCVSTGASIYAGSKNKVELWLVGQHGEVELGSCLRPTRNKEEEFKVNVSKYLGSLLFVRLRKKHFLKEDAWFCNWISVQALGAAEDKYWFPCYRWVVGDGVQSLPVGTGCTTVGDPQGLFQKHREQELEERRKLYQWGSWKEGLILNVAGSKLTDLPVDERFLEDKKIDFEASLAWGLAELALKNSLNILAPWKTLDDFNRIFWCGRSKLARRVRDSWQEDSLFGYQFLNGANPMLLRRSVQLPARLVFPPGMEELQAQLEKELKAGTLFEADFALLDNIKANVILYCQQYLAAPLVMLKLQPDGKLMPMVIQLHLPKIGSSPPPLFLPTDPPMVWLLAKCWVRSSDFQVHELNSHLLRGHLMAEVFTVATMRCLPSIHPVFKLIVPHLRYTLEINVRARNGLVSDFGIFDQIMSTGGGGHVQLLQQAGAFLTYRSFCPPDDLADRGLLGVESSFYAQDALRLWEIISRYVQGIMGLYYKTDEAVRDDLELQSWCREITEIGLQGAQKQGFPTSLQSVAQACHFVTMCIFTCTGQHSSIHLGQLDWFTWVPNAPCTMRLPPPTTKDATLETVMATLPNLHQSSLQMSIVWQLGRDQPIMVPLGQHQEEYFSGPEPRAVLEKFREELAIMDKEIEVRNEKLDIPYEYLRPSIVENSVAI

[4] = target: Beta-3 adrenergic receptor (Homo sapiens, UniProt P13945); assay: DRUGMATRIX: Adrenergic beta3 radioligand binding (ligand: [125I] Cyanopindolol); format: cell membranes, HEK293, Membrane; settings: hek293; Not Active = under 50% inhibition at 10 µM
[5] = DRUGMATRIX: Phosphodiesterase PDE3 enzyme inhibition (substrate: [3H]cAMP + cAMP); format: tissue-based, Homo sapiens; settings: platelet; Not Active = under 50% inhibition at 10 µM
[6] = target: T3, Amine oxidase [flavin-containing] A (Homo sapiens, UniProt P21397); assay: DRUGMATRIX: Monoamine Oxidase MAO-A enzyme inhibition (substrate: Kynuramine); design: species or system BTI-TN-5B1-4; settings: bti-tn-5b1-4; Not Active = under 50% inhibition at 10 µM
T3 sequence (P21397 whole entry): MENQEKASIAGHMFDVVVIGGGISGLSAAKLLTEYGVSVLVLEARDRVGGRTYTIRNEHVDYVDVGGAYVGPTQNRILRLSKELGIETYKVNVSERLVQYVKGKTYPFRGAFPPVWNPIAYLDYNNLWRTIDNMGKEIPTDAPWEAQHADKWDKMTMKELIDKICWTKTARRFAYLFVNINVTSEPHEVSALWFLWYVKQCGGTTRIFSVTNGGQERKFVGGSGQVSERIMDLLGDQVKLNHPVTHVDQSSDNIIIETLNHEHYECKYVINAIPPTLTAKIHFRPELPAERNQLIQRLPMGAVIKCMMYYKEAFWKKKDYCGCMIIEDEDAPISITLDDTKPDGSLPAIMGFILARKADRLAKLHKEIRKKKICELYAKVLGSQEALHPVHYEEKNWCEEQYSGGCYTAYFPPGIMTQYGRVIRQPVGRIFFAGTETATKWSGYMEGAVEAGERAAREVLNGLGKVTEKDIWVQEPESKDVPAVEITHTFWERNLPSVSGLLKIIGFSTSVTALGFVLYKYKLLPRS

[7] = target: T4, Neuropeptide Y receptor type 2 (Homo sapiens, UniProt P49146); format: cell membranes, Membrane; settings: kan-ts; further: in other assays of this panel Not Active means under 50% inhibition at 10 µM
T4 sequence (P49146 whole entry): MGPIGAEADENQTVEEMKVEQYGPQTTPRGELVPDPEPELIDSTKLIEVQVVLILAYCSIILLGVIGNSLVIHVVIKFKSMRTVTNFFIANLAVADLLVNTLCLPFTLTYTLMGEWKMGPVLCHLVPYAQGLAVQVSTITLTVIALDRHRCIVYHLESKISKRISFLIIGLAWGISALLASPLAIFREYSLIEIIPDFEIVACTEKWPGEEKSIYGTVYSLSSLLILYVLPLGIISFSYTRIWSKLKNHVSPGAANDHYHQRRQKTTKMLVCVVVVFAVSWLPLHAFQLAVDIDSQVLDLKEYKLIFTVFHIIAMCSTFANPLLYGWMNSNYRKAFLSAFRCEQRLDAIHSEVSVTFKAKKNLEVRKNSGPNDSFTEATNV

[8] = DRUGMATRIX: Glutamate, NMDA, Agonism radioligand binding (ligand: [3H] CGP-39653); format: cell membranes, Rattus norvegicus, Wistar, Cerebral cortex, Membrane; settings: Not Active = under 50% inhibition at 10 µM

Chain of Beta-3 adrenergic receptor (P13945 whole entry): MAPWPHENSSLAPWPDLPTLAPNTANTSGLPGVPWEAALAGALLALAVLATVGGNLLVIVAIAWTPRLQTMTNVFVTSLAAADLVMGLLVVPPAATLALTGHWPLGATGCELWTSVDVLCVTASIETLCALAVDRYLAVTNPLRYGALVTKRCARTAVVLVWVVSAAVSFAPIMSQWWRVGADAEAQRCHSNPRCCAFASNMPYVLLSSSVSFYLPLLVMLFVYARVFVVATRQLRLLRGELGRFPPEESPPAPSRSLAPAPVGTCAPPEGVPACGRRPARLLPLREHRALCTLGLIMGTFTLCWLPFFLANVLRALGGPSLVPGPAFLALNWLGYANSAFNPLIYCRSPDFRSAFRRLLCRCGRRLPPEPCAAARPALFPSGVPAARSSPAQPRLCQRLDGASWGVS

O=c1[nH]c(=O)n(C2CCCO2)cc1F (configuration not stated) [TEGAFUR]
Not Active: IC50 [1] | IC50 [2] | IC50 [3] | IC50 [4] | IC50 [5] | Ki [5] | IC50 [6] | IC50 [7] | IC50 [8] | Ki [8]

CC(=N)S [THIOACETAMIDE]
Not Active: IC50 [1] | IC50 [2] | IC50 [3] | IC50 [4] | IC50 [5] | Ki [5] | IC50 [6] | IC50 [7] | IC50 [8] | Ki [8]

Cc1ccc(C(=O)c2ccc(CC(=O)O)n2C)cc1 [TOLMETIN]
Not Active: IC50 [1] | IC50 [2] | IC50 [3] | IC50 [4] | IC50 [5] | Ki [5] | IC50 [6] | IC50 [7] | IC50 [8] | Ki [8]

CC(=O)OCC(COC(C)=O)OC(C)=O [TRIACETIN]
Not Active: IC50 [1] | IC50 [2] | IC50 [3] | IC50 [4] | IC50 [5] | Ki [5] | IC50 [6] | IC50 [7] | IC50 [8] | Ki [8]

CN1CCN(CCCN2c3ccccc3Sc3ccc(C(F)(F)F)cc32)CC1 [TRIFLUOPERAZINE]
Not Active: IC50 [1] | IC50 [2] | IC50 [3] | IC50 [4] | IC50 [5] | Ki [5] | IC50 [6] | IC50 [7] | IC50 [8] | Ki [8]

TRANSPLATIN
Not Active: IC50 [1] | Ki [1] | IC50 [2] | Ki [2] | IC50 [3] | Ki [3] | IC50 [4] | Ki [4] | IC50 [5] | Ki [5] | IC50 [6] | Ki [6] | IC50 [7] | Ki [7] | IC50 [8] | Ki [8]

ZIRCONIUM(IV) CHLORIDE
Not Active: IC50 [1] | Ki [1] | IC50 [2] | Ki [2] | IC50 [3] | Ki [3] | IC50 [4] | Ki [4] | IC50 [5] | Ki [5] | IC50 [6] | Ki [6] | IC50 [7] | Ki [7] | IC50 [8] | Ki [8]
